In data set [1] the test system is Mus musculus. The experiment in a line: Analgesic activity against po dosed ddY mouse assessed as time spent motionless on the ring for 5 mins by ring catalepsy test. Type of data set: functional.
Data set [2] concerns Mus musculus. The experiment in a line: Analgesic activity against formalin-induced acute pain in po dosed ICR mouse assessed as paw licking for 0 to 5 mins. Format: functional.
For data set [3], the target named is T1, Cannabinoid receptor 1 (Homo sapiens, UniProt P21554). The experiment in a line: Binding affinity to human CB1 receptor expressed in CHO cells assessed as inhibition of cAMP accumulation. Type of data set: functional, cell-based. On the technique in general: Changes in cAMP serve as a functional read-out for many G protein-coupled receptors.
T1 sequence (P21554 whole entry): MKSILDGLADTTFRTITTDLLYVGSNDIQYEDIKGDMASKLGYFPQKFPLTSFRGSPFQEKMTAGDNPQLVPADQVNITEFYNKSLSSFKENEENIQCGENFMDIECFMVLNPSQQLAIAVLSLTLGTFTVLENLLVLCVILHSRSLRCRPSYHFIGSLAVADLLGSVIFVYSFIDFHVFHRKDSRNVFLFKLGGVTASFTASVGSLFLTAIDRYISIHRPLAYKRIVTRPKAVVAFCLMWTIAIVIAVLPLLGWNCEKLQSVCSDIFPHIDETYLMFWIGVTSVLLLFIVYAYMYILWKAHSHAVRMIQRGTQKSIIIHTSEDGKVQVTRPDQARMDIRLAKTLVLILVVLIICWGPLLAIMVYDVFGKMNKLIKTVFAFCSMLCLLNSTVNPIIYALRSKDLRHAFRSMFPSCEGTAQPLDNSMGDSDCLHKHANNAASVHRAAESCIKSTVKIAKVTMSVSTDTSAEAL
The nature of data set [4]: Cmax in rat at 2 mg/kg, iv and 3 mg/kg, po. Format: ADME, organism-based. The note with it: in vivo.
A short description of data set [5]: AUC in rat at 3 mg/kg, po. The settings on record: plasma. Type of data set: ADME, organism-based. Set-up: dose 3 mg/kg, route oral.
Data set [6] can be described thus: Oral bioavailability in rat at 3 mg/kg. The note with it: in vivo. Type of data set: ADME, organism-based.
Data set [7] concerns Mus musculus. Briefly: Analgesic activity against formalin-induced inflammatory pain in po dosed ICR mouse assessed as paw licking for 10 to 30 mins. Format: functional.
The species entered for data set [8] is Mus musculus. Briefly: Ratio of ED50 for analgesic activity in ddY mouse by ring-catalepsy test to ED50 for analgesic activity against formalin-induced inflammatory pain in ICR mouse. Format: functional.
Data set [9] concerns the target T1, Cannabinoid receptor 1. Briefly: Binding affinity to human CB1 receptor.
The next data set deals with Cannabinoid receptor 2 (Homo sapiens, UniProt P34972). The experiment in a line: Binding affinity to human CB2 receptor.
Cannabinoid receptor 2, sequence (P34972 whole entry): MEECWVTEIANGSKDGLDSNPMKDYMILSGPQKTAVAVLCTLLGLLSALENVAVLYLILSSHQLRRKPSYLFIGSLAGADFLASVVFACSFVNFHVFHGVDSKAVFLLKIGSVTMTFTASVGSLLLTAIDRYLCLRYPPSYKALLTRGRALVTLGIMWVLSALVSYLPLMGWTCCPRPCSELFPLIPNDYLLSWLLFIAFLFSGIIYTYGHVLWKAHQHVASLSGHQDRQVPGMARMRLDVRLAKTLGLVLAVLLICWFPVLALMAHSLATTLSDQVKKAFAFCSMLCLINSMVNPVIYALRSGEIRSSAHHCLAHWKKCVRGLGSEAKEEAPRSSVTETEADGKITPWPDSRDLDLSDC
The target of data set [10] is Cannabinoid receptor 1 (Mus musculus, UniProt P47746). Briefly: Binding affinity to mouse CB1 receptor.
Cannabinoid receptor 1 (Mus musculus, UniProt P47746), sequence (P47746 whole entry): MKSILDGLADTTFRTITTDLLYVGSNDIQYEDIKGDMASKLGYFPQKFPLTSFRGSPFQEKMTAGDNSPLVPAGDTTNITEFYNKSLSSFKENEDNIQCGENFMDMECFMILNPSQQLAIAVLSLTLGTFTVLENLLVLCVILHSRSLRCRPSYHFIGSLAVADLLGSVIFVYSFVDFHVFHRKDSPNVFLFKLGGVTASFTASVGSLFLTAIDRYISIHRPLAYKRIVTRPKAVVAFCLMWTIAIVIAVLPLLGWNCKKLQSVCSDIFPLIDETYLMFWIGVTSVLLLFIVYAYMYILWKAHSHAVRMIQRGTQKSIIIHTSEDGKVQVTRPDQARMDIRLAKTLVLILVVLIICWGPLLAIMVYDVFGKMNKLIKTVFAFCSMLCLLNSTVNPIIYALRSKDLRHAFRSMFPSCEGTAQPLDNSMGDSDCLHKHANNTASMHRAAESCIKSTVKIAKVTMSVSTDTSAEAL
A short description of data set [11]: Half life in rat at 2 mg/kg, iv and 3 mg/kg, po. Type of data set: ADME, organism-based. The note with it: in vivo.
A short description of data set [12]: Total clearance in rat at 2 mg/kg, iv and 3 mg/kg, po. Type of data set: ADME, organism-based. The settings on record: in vivo.

Structures are written as SMILES. pIC50, pKi: −log10 of the molar value.

For `CSC(=S)N1CC2(CCCCC2)CS/C1=N\c1cccc2ccccc12`, the figures for the ED50 with Mus musculus [1], in the data set on Mus musculus [2] and in the data set with Mus musculus [7] were 19.2 mg/kg, 1.5 mg/kg and 1 mg/kg, respectively. The pIC50 – broadly, the IC50 on a negative log10 scale, so that one unit is a factor of ten – at Cannabinoid receptor 1 [3] is 8.00. Moreover, the Cmax (usually the maximum level reached in the sampled fluid or tissue) in data set [4] is 160 ng/mL. For the same compound, in [5], the AUC – broadly, the area under the concentration-time curve, a measure of exposure – is 1390 ng·h/mL. Besides, the bioavailability (commonly the share of a dose that reaches the circulation, judged against a reference dose that is usually intravenous) in data set [6] is 80%. Further, in the data set filed under Mus musculus [8], the “Ratio ED50” value was determined as 19.2.

Turning to `CSC(=S)N1CC2(CCCCC2)CO/C1=N\c1cc(C(C)(C)C)on1`, the pKi (in general, the Ki on a negative log10 scale, so that one unit is a factor of ten) at Cannabinoid receptor 1 [9] was 7.77; at Cannabinoid receptor 2, 8.33.

Take `COc1ccccc1/N=C1\OCC2(CCCCC2)CN1C(=S)SC`: the pKi at Cannabinoid receptor 1 [9] was 7.23; on Cannabinoid receptor 2 it was 9.05.

As for `CSC(=S)N1CC2(CCCCC2)CO/C1=N\c1cccc2nonc12`, the pKi on Cannabinoid receptor 1 [9] was 6.82; at Cannabinoid receptor 2, 8.17.

On to `CSC(=O)N1CC2(CCCCC2)CO/C1=N\c1cccc2ccccc12`, for which the figures for the pKi on Cannabinoid receptor 1 [9] and at Cannabinoid receptor 2 were 7.51 and 8.24, respectively.

Consider `CSC(=S)N1CC2(CCCCC2)CO/C1=N\c1ccccc1`, for which the pKi at Cannabinoid receptor 1 [9] is 6.29; at Cannabinoid receptor 2 it was 7.96.

Regarding `CSC(=O)N1CC2(CCCCC2)CS/C1=N\c1cccc2ccccc12`, the pKi was 7.31 at Cannabinoid receptor 1 [9] and 8.82 at Cannabinoid receptor 2.

In the case of `CSC(=S)N1CC2(CCCCC2)CO/C1=N\c1cccc2c1CCCC2`, the results for the pKi at Cannabinoid receptor 1 [9] and on Cannabinoid receptor 2 were 7.85 and 9.00, respectively.

In the case of `CSC(=S)N1CC2(CCCCC2)CO/C1=N\c1ccc(Cl)c2c1CCCC2`, the values for the pKi at Cannabinoid receptor 1 [9] and at Cannabinoid receptor 2 were 7.12 and 8.24, respectively.

In the case of `CSC(=S)N1CC2(CCCCC2)CO/C1=N\c1cc(C(C)(C)C)no1`, the results for the pKi on Cannabinoid receptor 1 [9] and on Cannabinoid receptor 2 were 9.05 and 9.00, respectively.

With `CSC(=S)N1CC2(CCCCC2)CO/C1=N\c1ccc(N(C)C)c2ccccc12`, the values for the pKi on Cannabinoid receptor 1 [9] and at Cannabinoid receptor 2 were 8.31 and 8.18, respectively.

Turning to `CSC(=S)N1CC2(CCCCC2)CO/C1=N\c1ccc(C#N)c2c1CCCC2`, the pKi at Cannabinoid receptor 1 [9] was 7.00; on Cannabinoid receptor 2, 8.72.

Regarding `CSC(=S)N1CC2(CCCCC2)CO/C1=N\c1ccc(F)c2ccccc12`, the pKi at Cannabinoid receptor 1 [9] was 8.31; at Cannabinoid receptor 2 it was 9.10.

On to `CSC(=S)N1CC2(CCCCC2)CO/C1=N\c1ccc(Cl)c2ccccc12`, for which the 50% effective dose (ED50) (commonly the midpoint of the dose-response relation) in the data set on Mus musculus [1] came to 25.6 mg/kg; in the data set on Mus musculus [2], 1.9 mg/kg; with Mus musculus [7], 0.64 mg/kg. Moreover, the pKi at Cannabinoid receptor 1 [9] is 8.47; on Cannabinoid receptor 2 it was 9.05; at Cannabinoid receptor 1 [10], 9.15. The pIC50 on Cannabinoid receptor 1 [3] is 8.10. Moreover, the half-life (usually the time in which the quantity being followed falls by half) in data set [11] was 2.2 h. Besides, the clearance in data set [12] was 14.7 mL/min/kg. In [4], this compound yielded a Cmax of 280 ng/mL. The same compound showed an AUC in [5] of 1210 ng·h/mL. In [6], the bioavailability is 35%. Moreover, the “Ratio ED50” value in the data set listed under Mus musculus [8] amounted to 40.

Take `CSC(=S)N1CC2(CCCCC2)CO/C1=N\c1ccc(C#N)c2ccccc12`: the values for the pKi on Cannabinoid receptor 1 [9] and at Cannabinoid receptor 2 were 8.04 and 8.74, respectively.

As to `CSC(=S)N1CC2(CCCCC2)CO/C1=N\c1nc(C(C)(C)C)cs1`, the pKi on Cannabinoid receptor 1 [9] and on Cannabinoid receptor 2 was 9.00 throughout.

For the compound `CSC(=O)N1CC2(CCCCC2)CN/C1=N\c1cccc2ccccc12`, the pKi is 6.20 on Cannabinoid receptor 1 [9] and 6.81 on Cannabinoid receptor 2.

In the case of `CSC(=S)N1CC2(CCCCC2)CO/C1=N\c1cccc2ccccc12`, the pKi on Cannabinoid receptor 1 [9] is 8.03; at Cannabinoid receptor 2 it was 9.05.

On to `CCC(CC)(CC)c1cc(/N=C2\OCC3(CCCCC3)CN2C(=S)SC)on1`, for which the pKi at Cannabinoid receptor 1 [9] and at Cannabinoid receptor 2 was 9.00 each time.

In the case of `CSC(=S)N1CC2(CCCCC2)CO/C1=N\c1ccc([N+](=O)[O-])c2ccccc12`, the pKi on Cannabinoid receptor 1 [9] is 7.85; at Cannabinoid receptor 2 it was 8.62.
